Laboratory results as given in EP4140481A1, “PROTEIN-OLIGOMER BINDING AGENTS AND THERAPEUTIC USES THEREOF” (Galyan Bio, Inc., priority 2021, dated 2023).
Entries after “also recorded” stand apart in the source; their conditions may differ.

How the values were obtained:
[1] = test system: C. elegans; test: C. elegans healthspan, Worm Activity (aggregate movement); assay type: in vivo
Text: Background: To measure healthspan, active worms were identified using the ALM scanner images from the lifespan assay. The worms' spatial location on the plate was quantified throughout their lifespan to assess healthspan. Worm Activity serves as a proxy for animal health. Changes in spatial distribution of the worms between time points is used to derive aggregate movement for the population over time.
Worm Activity is described by two complementary measurements of aggregate movement: 1) Centroid Distance calculates a geometric center for each individual worm, and then measures the minimum collective distance that a group of worms moved between time points. It achieves measurement of the changes in spatial distribution betweentime-points. 2). Spatial Distribution uses changes in worm contours between time points to measure the changes in the spatial distribution of the worms' bodies. The normalized distribution of these distances in the population provides a measure of how much the group of worms altered their positions and posture on the plate between two time-points. For both of these activity metrics, a plot with higher numbers indicates good health, and all measures are normalized to fall between 0 and 1. All measurements are based on worms that are still alive and moving at the time of quantification. […]

[2] = test system: C. elegans; conditions: in vivo
Procedure: Background: First, acute toxicity assays were performed to test the toxicity of the compounds in adult worms by simulating the actual conditions of the lifespan assay. This accomplished two things. First, in the early stages it determines doses that are acutely toxic to adult worms. Second, over time the worms are scored to rule out doses that despite low initial toxicity, will likely have a negative impact on lifespan. Worms are plated on the exact media and sealed plates that will be used in the lifespan assay and then incubated at 25°C to provide a pilot lifespan that helps catch any other dosing and delivery pitfalls early. Adult worms were monitored in the days immediately following exposure for lethality or any other obvious defects.
Results: Worms were treated with either vehicle control or Compound 4 at concentrations of 50nM, 500nM, 5µM, 50µM, and 500µM. […] The exception is that the worms are incubated at 25°C instead of 20°C to accelerate the aging process. […] Worms were then scored periodically for early deaths. Worms treated with 5 µM Compound 4 or higher concentrations began to decline faster than vehicle control-treated worms. As these doses would be unlikely to increase lifespan in an actual lifespan assay, this placed the upper boundary of effective concentrations between 500 nM and 5 µM (Figure 52 (B)). […]

[3] = target: T1, mHTT (Homo sapiens, UniProt P42858); conditions: reported effects in cultured cells, quoted for C. elegans dose selection; cited from earlier work
T1 construct: host or cells: ST HDH Q111/111 mouse striatal cell line (knock-in locus)
T1 sequence (P42858 with tags, fused parts or gaps with the stated changes): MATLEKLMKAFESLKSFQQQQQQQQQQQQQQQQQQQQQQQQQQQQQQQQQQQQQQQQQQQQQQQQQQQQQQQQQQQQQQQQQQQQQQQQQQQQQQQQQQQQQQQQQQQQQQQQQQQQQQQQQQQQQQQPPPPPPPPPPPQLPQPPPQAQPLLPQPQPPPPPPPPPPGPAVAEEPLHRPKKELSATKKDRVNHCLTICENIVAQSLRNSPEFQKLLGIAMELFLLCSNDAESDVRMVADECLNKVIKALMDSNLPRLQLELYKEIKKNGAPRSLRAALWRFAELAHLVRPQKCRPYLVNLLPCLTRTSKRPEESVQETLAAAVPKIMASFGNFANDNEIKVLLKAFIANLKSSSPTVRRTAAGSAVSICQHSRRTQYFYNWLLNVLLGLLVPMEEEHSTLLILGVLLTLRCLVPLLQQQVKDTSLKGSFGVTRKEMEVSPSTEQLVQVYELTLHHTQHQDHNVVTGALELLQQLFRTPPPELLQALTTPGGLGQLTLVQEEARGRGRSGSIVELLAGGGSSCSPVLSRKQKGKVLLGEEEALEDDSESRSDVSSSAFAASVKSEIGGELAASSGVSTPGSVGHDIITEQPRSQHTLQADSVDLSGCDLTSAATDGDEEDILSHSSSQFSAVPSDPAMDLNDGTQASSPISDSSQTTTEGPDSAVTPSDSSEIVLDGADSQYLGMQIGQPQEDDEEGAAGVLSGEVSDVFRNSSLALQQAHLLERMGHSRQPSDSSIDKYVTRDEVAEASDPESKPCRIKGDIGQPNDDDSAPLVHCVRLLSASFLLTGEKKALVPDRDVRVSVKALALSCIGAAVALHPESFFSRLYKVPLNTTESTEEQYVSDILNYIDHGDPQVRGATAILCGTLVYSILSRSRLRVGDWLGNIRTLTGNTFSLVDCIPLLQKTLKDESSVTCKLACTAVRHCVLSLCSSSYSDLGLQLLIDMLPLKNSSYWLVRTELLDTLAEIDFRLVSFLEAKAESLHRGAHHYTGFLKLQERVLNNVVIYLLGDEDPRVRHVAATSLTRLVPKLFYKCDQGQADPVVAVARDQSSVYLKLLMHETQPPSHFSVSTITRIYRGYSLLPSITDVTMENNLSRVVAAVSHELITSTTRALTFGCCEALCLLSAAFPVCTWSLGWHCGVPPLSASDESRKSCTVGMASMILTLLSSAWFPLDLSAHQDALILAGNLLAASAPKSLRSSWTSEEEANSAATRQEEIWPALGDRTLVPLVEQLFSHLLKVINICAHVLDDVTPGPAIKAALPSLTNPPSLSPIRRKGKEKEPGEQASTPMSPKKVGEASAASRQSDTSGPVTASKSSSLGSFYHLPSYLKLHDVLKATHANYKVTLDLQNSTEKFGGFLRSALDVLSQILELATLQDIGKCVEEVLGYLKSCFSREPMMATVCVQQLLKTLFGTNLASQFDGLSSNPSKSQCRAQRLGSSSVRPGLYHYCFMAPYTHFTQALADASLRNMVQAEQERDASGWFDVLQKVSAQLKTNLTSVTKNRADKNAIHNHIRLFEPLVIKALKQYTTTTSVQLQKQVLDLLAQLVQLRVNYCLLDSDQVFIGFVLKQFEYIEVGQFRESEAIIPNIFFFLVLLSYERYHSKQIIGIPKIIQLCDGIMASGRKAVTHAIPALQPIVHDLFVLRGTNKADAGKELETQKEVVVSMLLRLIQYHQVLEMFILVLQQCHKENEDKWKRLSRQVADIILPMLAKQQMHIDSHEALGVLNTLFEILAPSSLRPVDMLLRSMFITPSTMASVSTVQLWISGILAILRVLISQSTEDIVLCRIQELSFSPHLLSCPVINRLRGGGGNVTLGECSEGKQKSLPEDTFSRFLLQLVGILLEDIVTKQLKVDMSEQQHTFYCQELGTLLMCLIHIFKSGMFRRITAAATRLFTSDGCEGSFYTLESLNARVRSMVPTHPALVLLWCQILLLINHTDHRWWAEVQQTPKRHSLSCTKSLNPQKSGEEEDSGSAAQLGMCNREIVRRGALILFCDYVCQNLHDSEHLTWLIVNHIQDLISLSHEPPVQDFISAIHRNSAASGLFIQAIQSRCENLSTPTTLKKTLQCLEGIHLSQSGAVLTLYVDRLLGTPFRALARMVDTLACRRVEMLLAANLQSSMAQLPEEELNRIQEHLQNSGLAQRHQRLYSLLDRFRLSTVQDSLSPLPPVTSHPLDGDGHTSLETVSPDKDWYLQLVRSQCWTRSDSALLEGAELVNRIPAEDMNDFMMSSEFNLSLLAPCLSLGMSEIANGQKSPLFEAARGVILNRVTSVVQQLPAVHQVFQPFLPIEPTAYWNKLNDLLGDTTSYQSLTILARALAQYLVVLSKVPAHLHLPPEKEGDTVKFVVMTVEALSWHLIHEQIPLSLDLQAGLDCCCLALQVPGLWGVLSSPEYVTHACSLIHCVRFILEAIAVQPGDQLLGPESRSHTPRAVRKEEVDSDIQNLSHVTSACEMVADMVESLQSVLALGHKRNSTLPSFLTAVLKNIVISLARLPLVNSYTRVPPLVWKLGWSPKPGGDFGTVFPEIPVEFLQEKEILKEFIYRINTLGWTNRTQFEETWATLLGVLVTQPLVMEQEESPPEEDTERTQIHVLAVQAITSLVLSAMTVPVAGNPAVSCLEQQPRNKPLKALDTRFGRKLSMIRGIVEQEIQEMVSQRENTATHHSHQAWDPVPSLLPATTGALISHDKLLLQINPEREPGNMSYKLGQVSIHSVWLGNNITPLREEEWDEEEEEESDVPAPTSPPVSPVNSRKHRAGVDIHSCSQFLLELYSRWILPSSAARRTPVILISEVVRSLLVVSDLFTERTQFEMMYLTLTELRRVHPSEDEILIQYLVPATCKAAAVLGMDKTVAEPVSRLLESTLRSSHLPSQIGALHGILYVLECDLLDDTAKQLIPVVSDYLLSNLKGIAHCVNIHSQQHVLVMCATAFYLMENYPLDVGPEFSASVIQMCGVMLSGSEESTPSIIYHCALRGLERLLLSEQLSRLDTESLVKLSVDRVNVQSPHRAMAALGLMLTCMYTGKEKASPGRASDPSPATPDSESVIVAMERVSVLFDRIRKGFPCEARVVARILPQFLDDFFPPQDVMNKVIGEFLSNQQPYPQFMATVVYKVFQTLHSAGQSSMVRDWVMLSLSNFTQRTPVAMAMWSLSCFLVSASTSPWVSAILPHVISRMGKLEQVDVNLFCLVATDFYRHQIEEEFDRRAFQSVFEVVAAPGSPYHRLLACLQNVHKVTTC

[4] = Solubilization of Compound 4; assay type: physicochemical
[5] = test system: STHdh 111/111 striatal cells; test: Cell viability after heat shock (CellTiter Glo); conditions: heat shocked STHdh 111/111 versus STHdh 7/7 control cells
Procedure: Cell culture - ST HDH Q111/111 (CH00095, Coriell Institute) striatal derived cell line were grown at 33°C in DMEM (Sigma-Aldrich), supplemented with 10% fetal bovine serum (FBS), 1% Penicillin-Streptomycin (ThermoFisher Scientific), and 0.4 mg/ml G418 (Geneticin; Invitrogen). ST HDH Q111/111 are mouse striatal cells with polyQ length of 111.
Pre-Treatment of striatal cell line - First the medium was removed and new DMEM (DMEM, high glucose, HEPES, no phenol red) medium, supplemented with 10% fetal bovine serum (FBS), 1% Penicillin-Streptomycin, containing 10 µM compound was added. The cells were incubated at 33 °C for 24 hours.
Heat shock - Cells were heat shocked for 3 hours at 41 °C.
Treatment - Medium was removed and new DMEM (DMEM, high glucose, HEPES, no phenol red) medium, supplemented with 1% fetal bovine serum (FBS), 1% Penicillin-Streptomycin, containing 10 µM compound was added. The cells were incubated at 33 °C for 48 hours.
Cell Viability - Cell viability was measured according to manufacturer recommendations with CellTiter Glo (Promega).

[6] = test system: CREB-binding protein (CBP) colocalization with mHTT; test: Co-localization of CREB-binding protein (CBP) with mHTT; assay type: in vivo, R6/2 mice; conditions: treated animals of the R6/2 study versus untreated TG mice; p = 0.02
Text: Staining - Goat anti-Rabbit IgG (H+L) Alexa Fluor 647 (1:500, ThermoFisher Invitrogen) was used as a secondary antibody for binding to CBP antibody. DAPI (Sigma-Aldrich) was used to identify the nuclei. Goat anti-Mouse IgG (H+L), Alexa Fluor 488 (1:500, A-11034, ThermoFisher Invitrogen) was used as a secondary antibody for binding to EM48 antibody. Mouse anti-human-mHTT (EM48, 1:500, Sigma-Aldrich), was used to stain huntingtin. Rabbit anti-CBP (1:100, Sigma-Aldrich) was used a primary antibody to stain CBP.
The blocking buffer was freshly prepared and consisted of PBS (Sigma-Aldrich) with 5% normal goat serum (NGS), 0.2% BSA, 0.2% lysine and 0.2% glycine. […] On day six, samples were washed and then incubated with DAPI containing mounting medium Fluoroshield (Sigma-Aldrich), in order to counterstain the nuclei and preserve the fluorescence. […]
CBP colocalization with mHTT and quantitative assessment of the images were measured (Lee, J. et al., Acta Neuropathol. 2017 Nov;[…]:729-748; Steffan, J.S. et al., Nature. 2001 Oct 18;413(6857):739-743; Nucifora, F.C. et al., Science. 2001 Mar 23;291(5512):2423-2428). In brief, regions of interest (colocalized areas) in multi-channel images from two or three of the overlapping fluorescence dyes were selected using the Plugin CoLoc2 of FIJI. The colocalization score of identified areas was calculated. […]

[7] = Pharmacokinetics of Compound 22 in plasma and brain (UHPLC-TOF); assay type: in vivo, male CD1 mice
Procedure: Compound 22 pharmacokinetic properties was measured in three male CD1 mice at several timepoints. Compound 22 was dissolved in 10% DMSO, 10%, cremaphor, and 80% saline. The tested dose was 33.3 mg/kg body weight. Brain tissue was homogenized and protein precipitated with acetonitrile. […] As such, Compound 22 was selected for testing in an animal model of HD the R6/2 model. As described below, Compound 22 and its analogs were further tested for their effects on striatal cell viability and effects of mHTT levels.

| Structure (SMILES) | aggregate movement (Centroid Distance, Spatial Distribution) ([1]; high dose (2 µM), after a slower start) | aggregate movement (Centroid Distance, Spatial Distribution) ([1]; low dose (200 nM), over the lifespan) | concentration at which worms began to decline faster than vehicle control-treated worms [2] [µM] | EC50 [3] [nM] | solubility in DMSO ([4]; initial batch) | dissolved in water ([4]; second batch with an HCl modification) [mM] | cell viability at 24 hours after treatment [5] | reduction of CBP colocalization with mHTT [6] [fold] | penetration of the blood brain area in vivo ([7]; 33.3 mg/kg body weight, plasma and brain) | Blood Brain Barrier Penetrability AUCbrain/AUCplasma ([7]; Compound 22 in mice) | Cmax ([7]; male, CD1, mouse, brain, ip, 33.3 mg/kg body weight, i.p. administration and formulation, read-out: Brain exposure Cmax) [µM] |
| --- | --- | --- | --- | --- | --- | --- | --- | --- | --- | --- | --- |
| CCc1c(C)[nH]c2ccc(C(=O)NCCN(CC)CC)cc12 [Compound 4, N-(2-(diethylamino)ethyl)-3-ethyl-2-methyl-1H-indole-5-carboxamide] | even more elevated movement | consistently higher aggregate movement than control | ≥ 5 | 160 | limited solubility | ≥ 200 |  |  |  |  |  |
| Cc1[nH]c2ccc(C(=O)NCCN(C(C)C)C(C)C)cc2c1C [Compound 22] |  |  |  |  |  |  | almost equivalent to the cell viability of STHdh 7/7 control cells | 4 | penetrates the blood brain area; also recorded: can penetrate the blood brain area in vivo | AUCbrain/AUCplasma = 2.24 | 5.56 |
